In patent US9861680B2, “Immunomodulators” (BRISTOL-MYERS SQUIBB COMPANY, priority 2014, dated 2018):
Numbered stars: 1 amine (or outer) side, 2 acyl side, 3 side chain; on linkers, the order of the positions; unused ones are H or OH. Bridge positions count the residues as written; N and C are the ends. Square brackets hold non-standard residues; d marks the D form. Peptide text beside a SMILES is read from it. N(2-hydroxyethyl)Ala = C[C@H](NCCO)C(=O)O; X2 = C[C@@H](C(=O)[*:2])N(CCN)[*:1]; X1 = O=C(CN(CCC(F)(F)F)[*:1])[*:2]; Gly(N-2-aminoethyl) = NCCNCC(=O)O; NBnAla = C[C@H](NCc1ccccc1)C(=O)O; Hyp = O=C(O)[C@@H]1C[C@@H](O)CN1; Gly(N-CH2CH2OH) = O=C(O)CNCCO; NMeNle = CCCC[C@H](NC)C(=O)O; NEtAla = CCN[C@@H](C)C(=O)O; NMeA = CN[C@@H](C)C(=O)O; Dab = NCC[C@H](N)C(=O)O; NEtG = CCNCC(=O)O

Biological target: T1, PD-1-Ig binding to PD-L1-TVMV-His (PD-L1-His) (Homo sapiens, UniProt Q9NZQ7)
T1 construct: hPDL1(19-239)-TVMV-His; made in house; host or cells: HEK293T
Assay: PD-1/PD-L1 Homogenous Time-Resolved Fluorescence (HTRF) binding assay
Details: PD-L1-His 10 nM, PD-1-Ig 20 nM
From the text: Methods for Testing the Ability of Macrocyclic Peptides to Compete for the Binding of Pd-1 to Pd-L1 Using Homogenous Time-Resolved Fluorescence (HTRF) Binding Assays
The ability of the macrocyclic peptides of the present disclosure to bind to PD-L1 was investigated using a PD-1/PD-L1 Homogenous Time-Resolved Fluorescence (HTRF) binding assay.
Homogenous Time-Resolved Fluorescence (HTRF) Assays of Binding of Soluble PD-1 to Soluble PD-L1. Soluble PD-1 and soluble PD-L1 refers to proteins with carboxyl-end truncations that remove the transmembrane-spanning regions and are fused to heterologous sequences, specifically the Fc portion of the human immunoglobuling G sequence (Ig) or the hexahistidine epitope tag (His). All binding studies were performed in an HTRF assay buffer consisting of dPBS supplemented with 0.1% (w/v) bovine serum albumin and 0.05% (v/v) Tween-20. For the PD-1-Ig/PD-L1-His binding assay, inhibitors were pre-incubated with PD-L1-His (10 nM final) for 15 m in 4 μl of assay buffer, followed by addition of PD-1-Ig (20 nM final) in 1 μl of assay buffer and further incubation for 15 m. PD-L1 fusion proteins from either human, cynomologous macaques, mouse, or other species were used. HTRF detection was achieved using europium crypate-labeled anti-Ig monoclonal antibody (1 nM final) and allophycocyanin (APC) labeled anti-His monoclonal antibody (20 nM final). Antibodies were diluted in HTRF detection buffer and 5 μl was dispensed on top of binding reaction. The reaction was allowed to equilibrate for 30 minutes and signal (665 nm/620 nm ratio) was obtained using an EnVision fluorometer. Additional binding assays were established between PD-1-Ig/PD-L2-His (20 and 5 nM, respectively), CD80-His/PD-L1-Ig (100 and 10 nM, respectively) and CD80-His/CTLA4-Ig (10 and 5 nM, respectively). Binding/competition studies between biotinylated Compound No. 71 and human PD-L1-His were performed as follows. Macrocyclic peptide inhibitors were pre-incubated with PD-L1-His (10 nM final) for 60 minutes in 4 μl of assay buffer followed by addition of biotinylated Compound No. 71 (0.5 nM final) in 1 μl of assay buffer. Binding was allowed to equilibrate for 30 minutes followed by addition of europium crypated labeled Streptavidin (2.5 pM final) and APC-labeled anti-His (20 nM final) in 5 μl of HTRF buffer. The reaction was allowed to equilibrate for 30 m and signal (665 nm/620 nm ratio) was obtained using an EnVision fluorometer.
Recombinant Proteins. Carboxyl-truncated human PD-1 (amino acids 25-167) with a C-terminal human Ig epitope tag [hPD-1 (25-167)-3S-IG] and human PD-L1 (amino acids 18-239) with a C-terminal His epitope tag [hPD-L1(19-239)-tobacco vein mottling virus protease cleavage site (TVMV)-His] were expressed in HEK293T cells and purified sequentially by recombinant Protein A affinity chromatography and size exclusion chromatography. Human PD-L2-His (Sino Biologicals), CD80-His (Sino Biologicals), CTLA4-Ig (RnD Systems) were all obtained through commercial sources.
Ranges are as follows: A=0.10-10 μM; B=0.01-0.099 μM; C=0.005-0.0099 μM.

T1 sequence (Q9NZQ7 with tags, fused parts or gaps): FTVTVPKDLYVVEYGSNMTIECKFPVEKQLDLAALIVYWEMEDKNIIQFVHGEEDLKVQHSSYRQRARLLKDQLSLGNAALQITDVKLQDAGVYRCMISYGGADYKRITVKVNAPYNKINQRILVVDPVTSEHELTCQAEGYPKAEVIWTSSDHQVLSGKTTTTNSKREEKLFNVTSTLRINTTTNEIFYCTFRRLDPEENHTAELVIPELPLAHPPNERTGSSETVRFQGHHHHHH

Compound | IC50 (numeric value) | IC50 (range class)
CCCC[C@H]1C(=O)N[C@@H](CC(C)C)C(=O)N[C@H](C(=O)NCC(N)=O)CSCC(=O)N[C@@H](Cc2ccc(O)cc2)C(=O)N(C)[C@@H](C)C(=O)N[C@@H](CC(N)=O)C(=O)N2CCC[C@H]2C(=O)N[C@@H](Cc2cnc[nH]2)C(=O)N[C@@H](CCC(=O)O)C(=O)N2C[C@H](O)C[C@H]2C(=O)N[C@@H](Cc2c[nH]c3ccccc23)C(=O)N[C@@H](CCN)C(=O)N[C@@H](Cc2c[nH]c3ccccc23)C(=O)N(CCC(F)(F)F)CC(=O)N1C [Example 3038] ({CH2CO}-Y[NMeA]NPHE[Hyp]W[Dab]W[X1][NMeNle]LCG-NH2; thioether N-14) | 2.36 µM | –
CCCC[C@H]1C(=O)N[C@@H](CC(C)C)C(=O)N[C@H](C(=O)NCC(N)=O)CSCC(=O)N[C@@H](Cc2ccc(O)cc2)C(=O)N(C)[C@@H](C)C(=O)N[C@@H](CC(N)=O)C(=O)N2CCC[C@H]2C(=O)N[C@@H](Cc2cnc[nH]2)C(=O)N[C@@H](CCC(=O)O)C(=O)N2C[C@H](O)C[C@H]2C(=O)N[C@@H](Cc2c[nH]c3ccccc23)C(=O)N[C@@H](CCN)C(=O)N[C@@H](Cc2c[nH]c3ccccc23)C(=O)N(CC)[C@@H](C)C(=O)N1C [Example 3024] ({CH2CO}-Y[NMeA]NPHE[Hyp]W[Dab]W[NEtAla][NMeNle]LCG-NH2; thioether N-14) | – | 0.01 to 0.099 µM
CCCC[C@H]1C(=O)N(C)[C@@H](CCCC)C(=O)N[C@@H](CC(C)C)C(=O)N[C@H](C(=O)NCC(N)=O)CSCC(=O)N[C@@H](Cc2ccc(O)cc2)C(=O)N(C)[C@@H](C)C(=O)N[C@@H](CC(N)=O)C(=O)N2CCC[C@H]2C(=O)N[C@@H](Cc2cnc[nH]2)C(=O)N[C@@H](CCC(=O)O)C(=O)N(CC)CC(=O)N[C@@H](Cc2c[nH]c3ccccc23)C(=O)N[C@@H](CCN)C(=O)N[C@@H](Cc2c[nH]c3ccccc23)C(=O)N1C [Example 3003] ({CH2CO}-Y[NMeA]NPHE[NEtG]W[Dab]W[NMeNle][NMeNle]LCG-NH2; thioether N-14) | – | 0.01 to 0.099 µM
CCCC[C@H]1C(=O)N[C@@H](CC(C)C)C(=O)N[C@H](C(=O)NCC(N)=O)CSCC(=O)N[C@@H](Cc2ccc(O)cc2)C(=O)N(C)[C@@H](C)C(=O)N[C@@H](CC(N)=O)C(=O)N2CCC[C@H]2C(=O)N[C@@H](Cc2cnc[nH]2)C(=O)N[C@@H](CCC(=O)O)C(=O)N2C[C@H](O)C[C@H]2C(=O)N[C@@H](Cc2c[nH]c3ccccc23)C(=O)N[C@@H](CCN)C(=O)N[C@@H](Cc2c[nH]c3ccccc23)C(=O)N(CC(=O)O)CC(=O)N1C [Example 3037] | – | 0.1 to 10 µM
CCCC[C@H]1C(=O)N(C)[C@@H](CCCC)C(=O)N[C@@H](CC(C)C)C(=O)N[C@H](C(=O)NCC(N)=O)CSCC(=O)N[C@@H](Cc2ccc(O)cc2)C(=O)N(C)[C@@H](C)C(=O)N[C@@H](CC(N)=O)C(=O)N2CCC[C@H]2C(=O)N[C@@H](Cc2cnc[nH]2)C(=O)N[C@@H](CCC(=O)O)C(=O)N(CCC(F)(F)F)CC(=O)N[C@@H](Cc2c[nH]c3ccccc23)C(=O)N[C@@H](CCN)C(=O)N[C@@H](Cc2c[nH]c3ccccc23)C(=O)N1C [Example 3007] ({CH2CO}-Y[NMeA]NPHE[X1]W[Dab]W[NMeNle][NMeNle]LCG-NH2; thioether N-14) | – | 0.01 to 0.099 µM
CCCC[C@H]1C(=O)N(C)[C@@H](CCCC)C(=O)N[C@@H](CC(C)C)C(=O)N[C@H](C(=O)NCC(N)=O)CSCC(=O)N[C@@H](Cc2ccc(O)cc2)C(=O)N(CCO)CC(=O)N[C@@H](CC(N)=O)C(=O)N2CCC[C@H]2C(=O)N[C@@H](Cc2cnc[nH]2)C(=O)N[C@@H](CCC(=O)O)C(=O)N2C[C@H](O)C[C@H]2C(=O)N[C@@H](Cc2c[nH]c3ccccc23)C(=O)N[C@@H](CCN)C(=O)N[C@@H](Cc2c[nH]c3ccccc23)C(=O)N1C [Example 3045] ({CH2CO}-Y[Gly(N-CH2CH2OH)]NPHE[Hyp]W[Dab]W[NMeNle][NMeNle]LCG-NH2; thioether N-14) | – | 0.01 to 0.099 µM
CCCC[C@H]1C(=O)N(C)[C@@H](CCCC)C(=O)N[C@@H](CC(C)C)C(=O)N[C@H](C(=O)NCC(N)=O)CSCC(=O)N[C@@H](Cc2ccc(O)cc2)C(=O)N(CCC(F)(F)F)CC(=O)N[C@@H](CC(N)=O)C(=O)N2CCC[C@H]2C(=O)N[C@@H](Cc2cnc[nH]2)C(=O)N[C@@H](CCC(=O)O)C(=O)N2C[C@H](O)C[C@H]2C(=O)N[C@@H](Cc2c[nH]c3ccccc23)C(=O)N[C@@H](CCN)C(=O)N[C@@H](Cc2c[nH]c3ccccc23)C(=O)N1C [Example 3046] ({CH2CO}-Y[X1]NPHE[Hyp]W[Dab]W[NMeNle][NMeNle]LCG-NH2; thioether N-14) | – | 0.01 to 0.099 µM
CCCC[C@H]1C(=O)N[C@@H](CC(C)C)C(=O)N[C@H](C(=O)NCC(N)=O)CSCC(=O)N[C@@H](Cc2ccc(O)cc2)C(=O)N(C)[C@@H](C)C(=O)N[C@@H](CC(N)=O)C(=O)N2CCC[C@H]2C(=O)N[C@@H](Cc2cnc[nH]2)C(=O)N[C@@H](CCC(=O)O)C(=O)N2C[C@H](O)C[C@H]2C(=O)N[C@@H](Cc2c[nH]c3ccccc23)C(=O)N[C@@H](CCN)C(=O)N[C@@H](Cc2c[nH]c3ccccc23)C(=O)N(CCO)[C@@H](C)C(=O)N1C [Example 3033] ({CH2CO}-Y[NMeA]NPHE[Hyp]W[Dab]W[N(2-hydroxyethyl)Ala][NMeNle]LCG-NH2; thioether N-14) | – | 0.1 to 10 µM
CCCC[C@H]1C(=O)N(C)[C@@H](CCCC)C(=O)N[C@@H](CC(C)C)C(=O)N[C@H](C(=O)NCC(N)=O)CSCC(=O)N[C@@H](Cc2ccc(O)cc2)C(=O)N(C)[C@@H](C)C(=O)N[C@@H](CC(N)=O)C(=O)N2CCC[C@H]2C(=O)N[C@@H](Cc2cnc[nH]2)C(=O)N[C@@H](CCC(=O)O)C(=O)N(CCN)CC(=O)N[C@@H](Cc2c[nH]c3ccccc23)C(=O)N[C@@H](CCN)C(=O)N[C@@H](Cc2c[nH]c3ccccc23)C(=O)N1C [Example 3011] ({CH2CO}-Y[NMeA]NPHE[Gly(N-2-aminoethyl)]W[Dab]W[NMeNle][NMeNle]LCG-NH2; thioether N-14) | 0.00612 µM | –
CCCC[C@H]1C(=O)N(C)[C@@H](CCCC)C(=O)N[C@@H](CC(C)C)C(=O)N[C@H](C(=O)NCC(N)=O)CSCC(=O)N[C@@H](Cc2ccc(O)cc2)C(=O)N(Cc2ccccc2)[C@@H](C)C(=O)N[C@@H](CC(N)=O)C(=O)N2CCC[C@H]2C(=O)N[C@@H](Cc2cnc[nH]2)C(=O)N[C@@H](CCC(=O)O)C(=O)N2C[C@H](O)C[C@H]2C(=O)N[C@@H](Cc2c[nH]c3ccccc23)C(=O)N[C@@H](CCN)C(=O)N[C@@H](Cc2c[nH]c3ccccc23)C(=O)N1C [Example 3019] ({CH2CO}-Y[NBnAla]NPHE[Hyp]W[Dab]W[NMeNle][NMeNle]LCG-NH2; thioether N-14) | – | 0.01 to 0.099 µM
CCCC[C@H]1C(=O)N(C)[C@@H](CCCC)C(=O)N[C@@H](CC(C)C)C(=O)N[C@H](C(=O)NCC(N)=O)CSCC(=O)N[C@@H](Cc2ccc(O)cc2)C(=O)N(C)[C@@H](C)C(=O)N[C@@H](CC(N)=O)C(=O)N(CC(=O)O)CC(=O)N[C@@H](Cc2c[nH]cn2)C(=O)N[C@@H](CCC(=O)O)C(=O)N2C[C@H](O)C[C@H]2C(=O)N[C@@H](Cc2c[nH]c3ccccc23)C(=O)N[C@@H](CCN)C(=O)N[C@@H](Cc2csc3ccccc23)C(=O)N1C [Example 5002] | – | 0.005 to 0.0099 µM
CCCC[C@H]1C(=O)N(C)[C@@H](CCCC)C(=O)N[C@@H](CC(C)C)C(=O)N[C@H](C(=O)NCC(N)=O)CSCC(=O)N[C@@H](Cc2ccc(O)cc2)C(=O)N(CCN)[C@@H](C)C(=O)N[C@@H](CC(N)=O)C(=O)N2CCC[C@H]2C(=O)N[C@@H](Cc2cnc[nH]2)C(=O)N[C@@H](CCC(=O)O)C(=O)N2C[C@H](O)C[C@H]2C(=O)N[C@@H](Cc2c[nH]c3ccccc23)C(=O)N[C@@H](CCN)C(=O)N[C@@H](Cc2c[nH]c3ccccc23)C(=O)N1C [Example 3032] ({CH2CO}-Y[X2]NPHE[Hyp]W[Dab]W[NMeNle][NMeNle]LCG-NH2; thioether N-14) | – | 0.01 to 0.099 µM
